From ChEMBL document CHEMBL3885881, “DrugMatrix”

Species on record: Rattus norvegicus
Assay: DrugMatrix - Regimen: Daily Repeat
Assay type: toxicity, organism-based, Sprague-Dawley
Parameters: regimen Daily Repeat, gender Male, age 6-8 weeks
Conditions: in vivo, po, route oral GAVAGE, vehicle 100 % SALINE; for ABSOLUTE BASOPHIL / ABSOLUTE EOSINOPHIL / ABSOLUTE LYMPHOCYTE / ABSOLUTE MONOCYTE / ABSOLUTE SEGMENTED NEUTROPHIL / BASOPHIL / EOSINOPHIL / ERYTHROCYTE COUNT / HEMATOCRIT / HEMOGLOBIN / LEUKOCYTE COUNT / LYMPHOCYTE / MEAN CORPUSCULAR HEMOGLOBIN / MEAN CORPUSCULAR HEMOGLOBIN CONCENTRATION / MEAN CORPUSCULAR VOLUME / MONOCYTE / NEUTROPHIL / NUCLEATED RED BLOOD CELLS / PLATELET COUNT: tissue Blood; for ALANINE AMINOTRANSFERASE / ALBUMIN / ALKALINE PHOSPHATASE / ASPARTATE AMINOTRANSFERASE / BLOOD UREA NITROGEN / CARBON DIOXIDE / CHLORIDE / CHOLESTEROL / CREATINE PHOSPHOKINASE / CREATININE / GLUCOSE / LACTATE DEHYDROGENASE / LIPASE / PHOSPHORUS / POTASSIUM / SODIUM / TOTAL BILIRUBIN / TOTAL PROTEIN / URIC ACID: tissue Plasma
[1] = 0 mg/kg, 72 h, dose level Control, time 3 day
[2] = 0 mg/kg, 120 h, dose level Control, time 5 day
[3] = 11 mg/kg, 72 h, dose level High, time 3 day

Cc1cc(CC(=O)O)n(C)c1C(=O)c1ccc(Cl)cc1 [ZOMEPIRAC]
ABSOLUTE BASOPHIL [1]: 0 CELLS/uL
ABSOLUTE EOSINOPHIL [1]: 65.67 CELLS/uL
ABSOLUTE LYMPHOCYTE [1]: 17283.5 CELLS/uL
ABSOLUTE MONOCYTE [1]: 0 CELLS/uL
ABSOLUTE SEGMENTED NEUTROPHIL [1]: 1284.17 CELLS/uL
BASOPHIL [1]: 0%
EOSINOPHIL [1]: 0.33%
ERYTHROCYTE COUNT [1]: 5.46 x10E6/uL
HEMATOCRIT [1]: 34.28%
HEMOGLOBIN [1]: 13.78 G/DL
LEUKOCYTE COUNT [1]: 18.63 x10E3/uL
LYMPHOCYTE [1]: 92.67%
MEAN CORPUSCULAR HEMOGLOBIN [1]: 25.3 pg
MEAN CORPUSCULAR HEMOGLOBIN CONCENTRATION [1]: 40.22 G/DL
MEAN CORPUSCULAR VOLUME [1]: 62.87 fL
MONOCYTE [1]: 0%
NEUTROPHIL [1]: 7%
NUCLEATED RED BLOOD CELLS [1]: 0 /100WBC
PLATELET COUNT [1]: 1244.83 x10E3/uL
ALANINE AMINOTRANSFERASE [1]: 52.83 u/L
ALBUMIN [1]: 4 G/DL
ALKALINE PHOSPHATASE [1]: 327.67 u/L
ASPARTATE AMINOTRANSFERASE [1]: 78.83 u/L
BLOOD UREA NITROGEN [1]: 13.83 mg/dL
CARBON DIOXIDE [1]: 26.67 mmol/L
CHLORIDE [1]: 99.67 MEQ/L
CHOLESTEROL [1]: 69 mg/dL
CREATINE PHOSPHOKINASE [1]: 350.17 u/L
CREATININE [1]: 0.21 mg/dL
GLUCOSE [1]: 173.83 mg/dL
LACTATE DEHYDROGENASE [1]: 168.33 u/L
LIPASE [1]: 11 u/L
PHOSPHORUS [1]: 12.7 mg/dL
POTASSIUM [1]: 6.88 MEQ/L
SODIUM [1]: 141.68 MEQ/L
TOTAL BILIRUBIN [1]: 0.22 mg/dL
TOTAL PROTEIN [1]: 6.02 G/DL
URIC ACID [1]: 1.9 mg/dL
ABSOLUTE BASOPHIL [2]: 0 CELLS/uL
ABSOLUTE EOSINOPHIL [2]: 14.83 CELLS/uL
ABSOLUTE LYMPHOCYTE [2]: 12880 CELLS/uL
ABSOLUTE MONOCYTE [2]: 90.67 CELLS/uL
ABSOLUTE SEGMENTED NEUTROPHIL [2]: 864.5 CELLS/uL
BASOPHIL [2]: 0%
EOSINOPHIL [2]: 0.17%
ERYTHROCYTE COUNT [2]: 5.83 x10E6/uL
HEMATOCRIT [2]: 35.87%
HEMOGLOBIN [2]: 14 G/DL
LEUKOCYTE COUNT [2]: 13.85 x10E3/uL
LYMPHOCYTE [2]: 92.5%
MEAN CORPUSCULAR HEMOGLOBIN [2]: 24.03 pg
MEAN CORPUSCULAR HEMOGLOBIN CONCENTRATION [2]: 39.03 G/DL
MEAN CORPUSCULAR VOLUME [2]: 61.53 fL
MONOCYTE [2]: 0.67%
NEUTROPHIL [2]: 6.67%
NUCLEATED RED BLOOD CELLS [2]: 0 /100WBC
PLATELET COUNT [2]: 1041.83 x10E3/uL
ALANINE AMINOTRANSFERASE [2]: 56 u/L
ALBUMIN [2]: 4.47 G/DL
ALKALINE PHOSPHATASE [2]: 319 u/L
ASPARTATE AMINOTRANSFERASE [2]: 89.17 u/L
BLOOD UREA NITROGEN [2]: 15.2 mg/dL
CARBON DIOXIDE [2]: 24 mmol/L
CHLORIDE [2]: 104.4 MEQ/L
CHOLESTEROL [2]: 69.5 mg/dL
CREATINE PHOSPHOKINASE [2]: 295.83 u/L
CREATININE [2]: 0.21 mg/dL
GLUCOSE [2]: 124.33 mg/dL
LACTATE DEHYDROGENASE [2]: 325.5 u/L
LIPASE [2]: 14.67 u/L
PHOSPHORUS [2]: 11.45 mg/dL
POTASSIUM [2]: 6.74 MEQ/L
SODIUM [2]: 151.4 MEQ/L
TOTAL BILIRUBIN [2]: 0.23 mg/dL
TOTAL PROTEIN [2]: 6.45 G/DL
URIC ACID [2]: 1.18 mg/dL
ABSOLUTE BASOPHIL [3]: 0 CELLS/uL
ABSOLUTE EOSINOPHIL [3]: 0 CELLS/uL
ABSOLUTE LYMPHOCYTE [3]: 16900 CELLS/uL
ABSOLUTE MONOCYTE [3]: 480 CELLS/uL
ABSOLUTE SEGMENTED NEUTROPHIL [3]: 3253.33 CELLS/uL
BASOPHIL [3]: 0%
EOSINOPHIL [3]: 0%
ERYTHROCYTE COUNT [3]: 5.38 x10E6/uL
HEMATOCRIT [3]: 33.2%
HEMOGLOBIN [3]: 13.37 G/DL
LEUKOCYTE COUNT [3]: 20.63 x10E3/uL
LYMPHOCYTE [3]: 83.67%
MEAN CORPUSCULAR HEMOGLOBIN [3]: 24.83 pg
MEAN CORPUSCULAR HEMOGLOBIN CONCENTRATION [3]: 40.27 G/DL
MEAN CORPUSCULAR VOLUME [3]: 61.67 fL
MONOCYTE [3]: 2%
NEUTROPHIL [3]: 14.33%
NUCLEATED RED BLOOD CELLS [3]: 0 /100WBC
PLATELET COUNT [3]: 1231.67 x10E3/uL
ALANINE AMINOTRANSFERASE [3]: 59 u/L
ALBUMIN [3]: 3.87 G/DL
ALKALINE PHOSPHATASE [3]: 255.33 u/L
ASPARTATE AMINOTRANSFERASE [3]: 72.67 u/L
BLOOD UREA NITROGEN [3]: 13.33 mg/dL
CARBON DIOXIDE [3]: 25.33 mmol/L
CHLORIDE [3]: 101 MEQ/L
CHOLESTEROL [3]: 69 mg/dL
CREATINE PHOSPHOKINASE [3]: 224.67 u/L
CREATININE [3]: 0.23 mg/dL
GLUCOSE [3]: 183.67 mg/dL
LACTATE DEHYDROGENASE [3]: 112.67 u/L
LIPASE [3]: 10.33 u/L
PHOSPHORUS [3]: 11.5 mg/dL
POTASSIUM [3]: 5.88 MEQ/L
SODIUM [3]: 141.43 MEQ/L
TOTAL BILIRUBIN [3]: 0.2 mg/dL
TOTAL PROTEIN [3]: 5.77 G/DL
URIC ACID [3]: 1.47 mg/dL
